For experiment [1], the system named is cytochrome b5 and/or cytochrome b5 reductase. Nature of the experiment: Inhibition of the electron transport partners, concluded from the non-inhibited mARC2 conversion. The experiment is classed as biochemical, human. Particulars: concluded from the non-inhibited conversion for mARC2. The procedure:
(§1) The compounds N-hydroxyurethane (R1═H, R2═CH2CH3) and ethyl-N-(3-chlorophenyl) -hydroxycarbamate (R1═3-chlorophenyl, R2═CH2CH3) are used as examples of active compounds. FIGS. 1, 3 and 4 show the absorbance at 340 nm in dependence on the time for an incubation with the three-component system mARC1 and mARC2, respectively, cytochrome b5 and cytochrome b5 reductase, which catalyze the conversion of the model substrate benzamidoxime (BAO) to benzamidine in the presence of the cosubstrate NADH (5). The decrease in the concentration of NADH due to its absorption maximum at 340 nm is thereby measured. From the measurement results, which are shown in the bar graph of FIG. 4, the inhibition of the conversion of benzamidoxime to benzamidine is evident by the lower consumption of NADH. NADH represents the required cosubstrate for the conversion. […] The down-regulation is only observed for mARC1 and not for mARC2 (FIG. 2).
(§2) 105 μl MES buffer (20 mM, pH 6.0) was placed in a micro-UV cuvette. […] This batch was then set as a blank sample and the absorbance was zeroed. […] Herein, the absorbance spectrum between 300 nm and 400 nm was recorded every 30 s for a period of 10 min (spectrophotometer Cary® 50 Bio with Walter peltier system PCB 150, Agilent). […] The conversion rates of BAO with and without inhibitor were compared based on the absorbance change at 340 nm to determine the degree of inhibition. […]

In experiment [2] the target is T1, human mARC1 (Homo sapiens, UniProt Q5VT66).
T1 construct: made in house; host or cells: Escherichia coli
T1 sequence (Q5VT66 53-337 limits assumed): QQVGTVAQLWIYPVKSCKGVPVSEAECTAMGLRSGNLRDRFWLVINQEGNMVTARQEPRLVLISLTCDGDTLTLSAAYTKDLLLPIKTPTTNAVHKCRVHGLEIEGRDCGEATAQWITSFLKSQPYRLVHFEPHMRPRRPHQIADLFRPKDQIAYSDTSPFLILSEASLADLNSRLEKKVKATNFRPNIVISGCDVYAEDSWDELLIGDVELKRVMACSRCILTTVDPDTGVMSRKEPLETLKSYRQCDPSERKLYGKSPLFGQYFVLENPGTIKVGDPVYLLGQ
The experiment can be described thus: mARC1 three-component system (mARC1, cytochrome b5, cytochrome b5 reductase): conversion of benzamidoxime to benzamidine, NADH consumption at 340 nm / HPLC of benzamidine. Particulars: recombinant mARC1 + CYB5B + CYB5R3, NADH, substrate BAO, 37° C., MES pH 6.0; FIGS. 1-4 (N-hydroxyurethane and urethane 1 mM in FIGS. 1, 3). Type of experiment: biochemical. The procedure: as §1, §2

The target of experiment [3] is T2, human mARC2 (Homo sapiens, UniProt Q969Z3).
T2 construct: made in house; host or cells: Escherichia coli
T2 sequence (Q969Z3 36-335): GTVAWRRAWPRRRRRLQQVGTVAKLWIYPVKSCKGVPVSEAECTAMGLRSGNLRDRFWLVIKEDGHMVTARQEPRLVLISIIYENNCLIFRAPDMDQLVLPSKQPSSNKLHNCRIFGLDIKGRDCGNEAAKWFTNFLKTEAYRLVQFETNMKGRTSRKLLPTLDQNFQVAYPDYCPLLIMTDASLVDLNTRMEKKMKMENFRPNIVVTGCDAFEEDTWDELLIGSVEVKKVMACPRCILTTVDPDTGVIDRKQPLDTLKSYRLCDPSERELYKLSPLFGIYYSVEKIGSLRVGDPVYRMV
The experiment can be described thus: mARC2 three-component system (mARC2, cytochrome b5, cytochrome b5 reductase): conversion of benzamidoxime to benzamidine, NADH consumption at 340 nm / HPLC of benzamidine. Type of experiment: biochemical. The settings on record: recombinant mARC2 + CYB5B + CYB5R3, NADH, substrate BAO; FIG. 2. As for the experimental part:
as §1, §2

The results in this text go back to patent US20240207215A1, “MARC1 INHIBITORS FOR TREATMENT OF LIPID METABOLISM DISORDERS” (priority 2020, published 2024).

Each structure is given as a SMILES string.

`CCOC(=O)NO` [N-hydroxyurethane]: in experiment [1], the “inhibition of cytochrome b5 and/or cytochrome b5 reductase” value is listed as “are not inhibited”. The “inhibition of the conversion of benzamidoxime to benzamidine by mARC1” value in experiment [2] is given as “inhibition occurs”. Also, in experiment [3], the “down-regulation of the conversion of benzamidoxime to benzamidine by mARC2” value is given as “not for mARC2”.
With `CCOC(=O)N(O)c1cccc(Cl)c1` [ethyl-N-(3-chlorophenyl)-hydroxycarbamate], in experiment [2], the “inhibition of the conversion of benzamidoxime to benzamidine by mARC1” value is reported as “inhibition occurs”.
